Earlier results as cited in patent US20080241273A1, “MASTIC GUM COMPOSITION FOR USE AS A DIETARY SUPPLEMENT IN HUMANS AND ANIMALS” (INTACT ENTERPRISES, INC., priority 2005, published 2008).

How the values were obtained:
[1] = oral, six weeks, daily dose of 15 mmol
[2] = hydrochloric acid titrated to a pH between 6 and 7
[3] = type 1 and type 2 diabetes
[4] = 6 mg/kg daily orally for up to 60 days
[5] = infusion, patients with lowered ionized magnesium
[6] = healthy individuals, oral
[7] = dogs

For magnesium lactate citrate, the bioavailability [1] is given as “satisfactory”.

For `[O]=[Mg]` [magnesium oxide], the reprecipitation [2] is listed as “did not occur”.

For `O=S(=O)([O-])[O-].[O]=[V+2]` [vanadyl sulfate], the blood sugar [3] is listed as “reduced” and the insulin sensitivity [3] is listed as “improved”.

For `[Mg+2]` [magnesium], the “serum concentrations of calcium, magnesium, parathyroid hormone, calcitriol, osteocalcin” value [4] is given as “increased significantly” and the “relief of acute migraine” value [5] is given as “rapid and sustained relief”.

In the case of magnesium citrate, the “in vivo absorption (rise in urinary magnesium levels)” value [6] is given as “absorbed to a much greater extent than the oxide” and the reprecipitation [2] is given as “did not occur”.

For `C[C@H](O)C(=O)[O-].C[C@H](O)C(=O)[O-].O.O.[Mg+2]` [magnesium L-lactate dihydrate], the “bioavailability under decreased acidity” value [7] is listed as “did not impair”.
